As usually defined, the logP is the decadic logarithm of the partition coefficient of the neutral form, usually between octanol and water. A low value points to lower lipophilicity.

`CNC(=O)ON=C1SC(C)OC1C` (centres undefined) gave a logP of 0.96.
Next, `CNC(=O)ON=C1SCSC1C` (centres undefined): 0.91; `CNC(=O)ON=C1CSC(C)(C)S1`: 1.33.
Next, `CNC(=O)ON=C1SCSC1(C)C`: 1.31; `CNC(=O)ON=C1CSCCS1`: 0.49; `CNC(=O)ON=C1SCCSC1(C)C`: 1.51.
Next, `CNC(=O)ON=C1SCOC1C(C)C` (centres undefined): 1.48; `CNC(=O)ON=C1COCS1`: 0.06.
Compound `CNC(=O)ON=C1SCOC1(C)C` had a logP of 0.82.
Next, `CNC(=O)ON=C1CSCS1`: 0.51.
`CCCC1OCSC1=NOC(=O)NC` (centres undefined) registered a logP of 1.52.
Compound `CNC(=O)ON=C1SCOC1C` (centres undefined) showed a logP of 0.46.
`CNC(=O)ON=C1SCOC1CCOC` (centres undefined) came in with a log partition coefficient (logP) of 0.51.
Next, `CNC(=O)ON=C1COCCS1`: 0.
